Holding throughout (assay): relative viability (nuclei count vs DMSO), 5 days (fraction); higher = more cells survive
Compound in experiment [1]: CO[C@@H]1[C@H](N(C)C(=O)c2ccccc2)C[C@H]2O[C@]1(C)n1c3ccccc3c3c4c(c5c6ccccc6n2c5c31)C(=O)NC4 [Midostaurin] + Cc1nc(NC(=O)N2CCC[C@H]2C(N)=O)sc1-c1ccnc(C(C)(C)C(F)(F)F)c1 [Alpelisib] (partner 2 µM)
In short, it runs like this: (§1)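 Values are medians from duplicate plates. Each reflects relative viability, defined as the nuclei count of treated wells over that of vehicle wells. Lung cancer cell lines in 1536-well plates were pin-tool dosed one day after seeding with one drug alone or with a fixed anchor-drug dose plus five library-drug doses (not always all listed) in √10 steps, then fixed, stained and imaged at 4× after 5 days.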

Compound in experiment [2]: CO[C@@H]1[C@H](N(C)C(=O)c2ccccc2)C[C@H]2O[C@]1(C)n1c3ccccc3c3c4c(c5c6ccccc6n2c5c31)C(=O)NC4 [Midostaurin] + Nc1ncn([C@H]2C[C@H](O)[C@@H](CO)O2)c(=O)n1 [Decitabine] (partner 2 µM)
The procedure, abridged: as §1

Compound in experiment [3]: CO[C@@H]1[C@H](N(C)C(=O)c2ccccc2)C[C@H]2O[C@]1(C)n1c3ccccc3c3c4c(c5c6ccccc6n2c5c31)C(=O)NC4 [Midostaurin] + O=C(CCCCCCC(=O)Nc1ccccc1)NO [Vorinostat] (partner 1 µM)
The procedure, abridged: as §1

Compound in experiment [4]: COc1cc(-c2nn([C@H]3CC[C@H](N4CCN(C(C)=O)CC4)CC3)c3ncnc(N)c23)ccc1NC(=O)c1cc2ccccc2n1C + CS(=O)(=O)CCNCc1ccc(-c2ccc3ncnc(Nc4ccc(OCc5cccc(F)c5)c(Cl)c4)c3c2)o1 [Lapatinib] (partner 2 µM)
The procedure, abridged: as §1

Compound in experiment [5]: COc1cc(-c2nn([C@H]3CC[C@H](N4CCN(C(C)=O)CC4)CC3)c3ncnc(N)c23)ccc1NC(=O)c1cc2ccccc2n1C + CS(=O)(=O)N1CCN(Cc2cc3nc(-c4cccc5[nH]ncc45)nc(N4CCOCC4)c3s2)CC1 [Pictilisib] (partner 1 µM)
The procedure, abridged:
as §1

Consider UMC-11, for which the relative viability was determined as 1.04 in experiment [1] (first compound 0.01 µM); 0.915 in experiment [1] (first compound 0.03162 µM); 0.792 in experiment [1] (first compound 0.1 µM); 0.375 in experiment [1] (first compound 0.3162 µM); 0.655 in experiment [2] (first compound 0.01 µM); 0.772 in experiment [2] (first compound 0.03162 µM). For the same cell line, the relative viability in experiment [2] (first compound 0.1 µM) is 0.637; in experiment [2] (first compound 0.3162 µM), 0.704; in experiment [3] (first compound 0.01 µM), 0.424; in experiment [3] (first compound 0.03162 µM), 0.445; in experiment [3] (first compound 0.1 µM), 0.242; in experiment [3] (first compound 0.3162 µM), 0.187. The relative viability turned out to be 1.04 in experiment [4] (first compound 0.0128 µM); 0.978 in experiment [4] (first compound 0.04048 µM); 0.712 in experiment [4] (first compound 0.128 µM); 0.739 in experiment [4] (first compound 1.28 µM); 0.89 in experiment [5] (first compound 0.0128 µM); 0.788 in experiment [5] (first compound 0.04048 µM). The relative viability in experiment [5] (first compound 0.128 µM) stood at 0.767; in experiment [5] (first compound 1.28 µM), 0.71.
